Some test systems named below: HS 578T breast; MOLT-4 leukemia; U251 CNS; LOX IMVI melanoma; EKVX NSCLC; NCI-H23 lung; HCT-116 colon; MALME-3M melanoma; NCI/ADR-RES ovarian; COLO 205 colon.
Holding throughout (test): inhibition of tumour cell growth, NCI panel, 48 h

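Cells were grown in 96-well plates and exposed to each compound for 48 hours at five concentrations; endpoints were interpolated linearly between bracketing concentrations, or set to the highest concentration if not reached. At the GI50, growth is halved. The concentration for full growth arrest is given as TGI.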

On to `Oc1cc(Cl)ccc1Cc1ccc(Cl)cc1O`, for which the GI50 in the experiment with HS 578T breast is 7.2 µM; in the experiment on MOLT-4 leukemia it was 9.24 µM; in the experiment with U251 CNS it was 6.7 µM; with LOX IMVI melanoma, 5.84 µM; in the experiment with EKVX NSCLC, 5.56 µM; in the experiment on NCI-H23 lung it was 3.21 µM. The GI50 in the experiment on HCT-116 colon is 4.95 µM; in the experiment with MALME-3M melanoma, 4.32 µM; in the experiment with NCI/ADR-RES ovarian it was 8.63 µM; in the experiment with COLO 205 colon, 16.9 µM. The TGI in the experiment on HS 578T breast was 32.8 µM; in the experiment with MOLT-4 leukemia it was more than 100 µM; with U251 CNS, 21.7 µM; in the experiment on LOX IMVI melanoma, 18.2 µM; in the experiment with EKVX NSCLC, 36 µM; in the experiment on NCI-H23 lung, 12.6 µM. The TGI in the experiment on HCT-116 colon was determined as 17.1 µM; in the experiment with MALME-3M melanoma, 19.2 µM; in the experiment on NCI/ADR-RES ovarian it was 25.4 µM; in the experiment with COLO 205 colon it was 30.6 µM.

Turning to `CCC(=O)c1ccc2c(c1)N(CCCN1CCN(CCO)CC1)c1ccccc1S2`, the GI50 with HS 578T breast is 13.3 µM; in the experiment with MOLT-4 leukemia it was 11 µM; in the experiment on U251 CNS, 13.2 µM; with LOX IMVI melanoma it was 11.1 µM; in the experiment on EKVX NSCLC, 13.1 µM; in the experiment with NCI-H23 lung it was 15.9 µM. The GI50 in the experiment on HCT-116 colon was 10.5 µM; with MALME-3M melanoma, 8.85 µM; with NCI/ADR-RES ovarian, 14.7 µM; in the experiment on COLO 205 colon, 12.1 µM. The TGI in the experiment on HS 578T breast came out at 36.5 µM; in the experiment on MOLT-4 leukemia it was 26.8 µM; in the experiment on U251 CNS it was 27.9 µM; in the experiment with LOX IMVI melanoma it was 26.5 µM; with EKVX NSCLC, 28.1 µM; in the experiment with NCI-H23 lung, 31.4 µM. Besides, the TGI in the experiment with HCT-116 colon came out at 22.9 µM; in the experiment on MALME-3M melanoma it was 26.1 µM; in the experiment on NCI/ADR-RES ovarian, 29.4 µM; with COLO 205 colon, 26.5 µM.

On to `COc1cc(-c2n/c(=C\c3c(O)[nH]c4ccccc34)cc3c2=Nc2ccccc2-3)cc(OC)c1OC`, for which the GI50 with HS 578T breast is 0.418 µM; with MOLT-4 leukemia, 0.528 µM; in the experiment on U251 CNS, 0.333 µM; in the experiment with LOX IMVI melanoma, 0.552 µM; in the experiment on EKVX NSCLC, more than 24.9 µM; with NCI-H23 lung it was 0.39 µM. The GI50 in the experiment with HCT-116 colon is 0.392 µM; in the experiment on MALME-3M melanoma, 0.448 µM; in the experiment on NCI/ADR-RES ovarian, 1.62 µM; in the experiment on COLO 205 colon, 1.55 µM. The TGI is 68 µM in the experiment with HS 578T breast; 7.34 µM in the experiment with MOLT-4 leukemia; 12.1 µM with U251 CNS; more than 100 µM in the experiment with LOX IMVI melanoma; more than 100 µM in the experiment with EKVX NSCLC; more than 100 µM with NCI-H23 lung. The TGI in the experiment on HCT-116 colon was 2.44 µM; in the experiment on MALME-3M melanoma, more than 100 µM; with NCI/ADR-RES ovarian, more than 31.5 µM; with COLO 205 colon it was 6.7 µM.

For `O=[N+]([O-])/C=C/c1ccc([N+](=O)[O-])cc1`, the GI50 in the experiment on HS 578T breast is 2.64 µM; with MOLT-4 leukemia it was 5.81 µM; in the experiment on U251 CNS, 1.78 µM; in the experiment on LOX IMVI melanoma it was 1.32 µM; in the experiment with EKVX NSCLC, 14.1 µM; with NCI-H23 lung, 2.07 µM. Also, the GI50 in the experiment on HCT-116 colon was 1.52 µM; in the experiment on MALME-3M melanoma, 4.23 µM; in the experiment with NCI/ADR-RES ovarian, 8.71 µM; with COLO 205 colon it was 1.97 µM. The TGI in the experiment with HS 578T breast was 9.87 µM; with MOLT-4 leukemia it was 62.5 µM; in the experiment on U251 CNS, 3.52 µM; in the experiment on LOX IMVI melanoma it was 2.73 µM; in the experiment on EKVX NSCLC, 31.8 µM; in the experiment on NCI-H23 lung it was 5.2 µM. The TGI came out at 3.08 µM in the experiment with HCT-116 colon, 15.1 µM in the experiment with MALME-3M melanoma, 73.8 µM with NCI/ADR-RES ovarian and 4.22 µM with COLO 205 colon.

Regarding `Oc1ccc(CN(Cc2ccc(C(F)(F)F)cc2)Cc2ccc(O)c3ncccc23)c2cccnc12`, the GI50 with HS 578T breast is 0.0438 µM; with MOLT-4 leukemia, 0.0818 µM; in the experiment on U251 CNS, less than 0.01 µM; in the experiment on LOX IMVI melanoma, 0.0381 µM; in the experiment with EKVX NSCLC it was 0.0482 µM; in the experiment with NCI-H23 lung, 0.0245 µM. The GI50 is less than 0.01 µM in the experiment with HCT-116 colon, 0.0461 µM with MALME-3M melanoma, less than 0.01 µM in the experiment on NCI/ADR-RES ovarian and 0.091 µM with COLO 205 colon. Further, the TGI in the experiment with HS 578T breast was more than 100 µM; with MOLT-4 leukemia, more than 100 µM; with U251 CNS, more than 100 µM; with LOX IMVI melanoma, 15.1 µM; in the experiment on EKVX NSCLC, more than 100 µM; with NCI-H23 lung it was more than 100 µM. The TGI in the experiment with HCT-116 colon, in the experiment with MALME-3M melanoma, in the experiment on NCI/ADR-RES ovarian and with COLO 205 colon was more than 100 µM each time.

For the molecule `CC1(C)Cc2c(Br)c(Br)c(Br)c(OCC(O)CN3CCOCC3)c2O1` (stereo not given), the GI50 in the experiment on HS 578T breast is 17.2 µM; in the experiment with MOLT-4 leukemia, 3.15 µM; with U251 CNS, 13.7 µM; in the experiment on LOX IMVI melanoma, 13.6 µM; with EKVX NSCLC, 7.72 µM; with NCI-H23 lung, 13.5 µM. Further, the GI50 was 15.4 µM with HCT-116 colon, 15 µM with MALME-3M melanoma, 16.1 µM in the experiment with NCI/ADR-RES ovarian and 13.4 µM with COLO 205 colon. The TGI with HS 578T breast worked out at 47.4 µM; in the experiment with MOLT-4 leukemia it was 14.1 µM; with U251 CNS, 27.9 µM; in the experiment with LOX IMVI melanoma, 27.9 µM; with EKVX NSCLC, 20.5 µM; in the experiment on NCI-H23 lung it was 27.6 µM. In addition, the TGI in the experiment with HCT-116 colon amounted to 45.2 µM; in the experiment with MALME-3M melanoma, 32.7 µM; in the experiment with NCI/ADR-RES ovarian, 34.7 µM; in the experiment with COLO 205 colon, 27 µM.

In the case of `Cc1cc2nc3c4cccc(O)c4n(CCN(C)C)c3nc2cc1C`, the GI50 in the experiment with HS 578T breast is 3.32 µM; with MOLT-4 leukemia it was 0.443 µM; with U251 CNS, 2.05 µM; in the experiment on LOX IMVI melanoma, 1.24 µM; in the experiment with EKVX NSCLC it was 2.89 µM; with NCI-H23 lung, 3.07 µM. Further, the GI50 is 1.49 µM in the experiment with HCT-116 colon, 1.64 µM in the experiment with MALME-3M melanoma, 1.97 µM in the experiment with NCI/ADR-RES ovarian and 3.89 µM in the experiment on COLO 205 colon. Besides, the TGI with HS 578T breast stood at 31.8 µM; in the experiment on MOLT-4 leukemia it was 8.98 µM; with U251 CNS it was 7.72 µM; in the experiment on LOX IMVI melanoma it was 2.6 µM; in the experiment with EKVX NSCLC, 17.7 µM; in the experiment on NCI-H23 lung, 16 µM. Moreover, the TGI was 7.97 µM with HCT-116 colon, 3.42 µM with MALME-3M melanoma, 11.4 µM in the experiment on NCI/ADR-RES ovarian and 19.4 µM with COLO 205 colon.

With `O=[N+]([O-])c1ccc(N=Nc2c(O)[nH]c3ccccc23)cc1`, the TGI is 51.6 µM in the experiment with HS 578T breast; more than 100 µM in the experiment with MOLT-4 leukemia; more than 100 µM in the experiment with U251 CNS; more than 96.3 µM in the experiment on LOX IMVI melanoma; more than 72.1 µM in the experiment with EKVX NSCLC; more than 100 µM with NCI-H23 lung. In addition, the TGI is more than 96.4 µM in the experiment with HCT-116 colon, 45.2 µM in the experiment on MALME-3M melanoma, 48.5 µM with NCI/ADR-RES ovarian and more than 100 µM in the experiment on COLO 205 colon.

The record behind these values is PubChem BioAssay (NCI).
